In ChEMBL document CHEMBL1697692, “Developing structure-activity relationships for the prediction of hepatotoxicity” (Chem Res Toxicol, 2010):
Numbered stars: 1 amine (or outer) side, 2 acyl side, 3 side chain; on linkers, the order of the positions; unused ones are H or OH. Bridge positions count the residues as written; N and C are the ends. Square brackets hold non-standard residues; d marks the D form. Peptide text beside a SMILES is read from it. * marks the point of attachment. ξ: configuration not given here. Ileψ(thiazoline)Cys = CC[C@H](C)[C@H](N)C1=N[C@H](C(=O)*)CS1; X1 = N=C1NCCC([C@H](N[*:1])C(=O)[*:2])N1; ΔAla(Z-3-ureido) = NC(=O)N/C=C(\N)C(=O)O; dOrn = NCCC[C@@H](N)C(=O)O; ξβ3hOrn = NCCCC(N)CC(=O)*; Dap = NC[C@H](N)C(=O)O

Test system: Hepatotoxicity
Assay: Literature-mined public compounds from Greene et al multi-species hepatotoxicity modelling dataset

| Molecule | Hepatotoxicity |
| --- | --- |
| COc1cc(C(=O)NCc2ccc(OCCN(C)C)cc2)cc(OC)c1OC.Cl [TRIMETHOBENZAMIDE HYDROCHLORIDE] | HH: Evidence of human hepatotoxicity |
| COc1cc2c(c(OC)c1OC)-c1ccc(OC)c(=O)cc1[C@@H](NC(C)=O)CC2 [COLCHICINE] | WE: Weak evidence (<10 case reports) of human hepatotoxicity |
| COc1cc(N)c(Cl)cc1C(=O)NC1CCN(CCCOc2ccc(F)cc2)CC1OC (stereo not drawn) [CISAPRIDE] | NE: No evidence of hepatotoxicity in any species |
| CC(C)OC(=O)C(C)(C)Oc1ccc(C(=O)c2ccc(Cl)cc2)cc1 [FENOFIBRATE] | HH: Evidence of human hepatotoxicity |
| CCO[C@@H](Cc1ccc(OCCN2c3ccccc3Oc3ccccc32)cc1)C(=O)O [RAGAGLITAZAR] | NE: No evidence of hepatotoxicity in any species |
| COC(=O)Nc1nc2ccc(C(=O)c3ccccc3)cc2[nH]1 [MEBENDAZOLE] | HH: Evidence of human hepatotoxicity |
| CO[C@H]1/C=C/O[C@@]2(C)Oc3c(C)c(O)c4c(O)c(c(/C=N/N5CCN(C)CC5)c(O)c4c3C2=O)NC(=O)/C(C)=C\C=C\[C@H](C)[C@H](O)[C@@H](C)[C@@H](O)[C@@H](C)[C@H](OC(C)=O)[C@@H]1C [RIFAMPIN] | WE: Weak evidence (<10 case reports) of human hepatotoxicity |
| Nc1ccc(S(=O)(=O)c2ccc(N)cc2)cc1 [DAPSONE] | HH: Evidence of human hepatotoxicity |
| CC(C)(Oc1ccc(C2CC2(Cl)Cl)cc1)C(=O)O (stereo not drawn) [CIPROFIBRATE] | HH: Evidence of human hepatotoxicity |
| CC(COc1ccccc1)NC(C)C(O)c1ccc(O)cc1.Cl (stereo not drawn) [ISOXSUPRINE HYDROCHLORIDE] | NE: No evidence of hepatotoxicity in any species |
| CN(C)CCn1nnnc1SCC1=C(C(=O)O)N2C(=O)[C@@H](NC(=O)Cc3csc(N)n3)[C@H]2SC1.Cl.Cl [CEFOTIAM HYDROCHLORIDE] | HH: Evidence of human hepatotoxicity |
| O=C1CC[C@@]2(O)[C@H]3Cc4ccc(O)c5c4[C@@]2(CCN3CC2CC2)[C@H]1O5 [NALTREXONE] | HH: Evidence of human hepatotoxicity |
| CC(O)(CS(=O)(=O)c1ccc(F)cc1)C(=O)Nc1ccc(C#N)c(C(F)(F)F)c1 (stereo not drawn) [BICALUTAMIDE] | HH: Evidence of human hepatotoxicity |
| CCOc1ccc(NC(C)=O)cc1 [PHENACETIN] | HH: Evidence of human hepatotoxicity |
| CC(C)(C)NC[C@H](O)COc1nsnc1N1CCOCC1.O=C(O)/C=C\C(=O)O [TIMOLOL MALEATE] | HH: Evidence of human hepatotoxicity |
| O=C1CN(/N=C/c2ccc(-c3ccc([N+](=O)[O-])cc3)o2)C(=O)[N-]1.[Na+] [DANTROLENE SODIUM] | HH: Evidence of human hepatotoxicity |
| Cl.NC12CC3CC(CC(C3)C1)C2 [AMANTADINE HYDROCHLORIDE] | NE: No evidence of hepatotoxicity in any species |
| NC1CCN(c2c(F)cc3c(=O)c(C(=O)O)cn(C4CC4)c3c2Cl)C1 (stereo not drawn) [CLINAFLOXACIN] | WE: Weak evidence (<10 case reports) of human hepatotoxicity |
| CCCN(CCC)S(=O)(=O)c1ccc(C(=O)O)cc1 [PROBENECID] | WE: Weak evidence (<10 case reports) of human hepatotoxicity |
| O=P1(N(CCCl)CCCl)NCCCO1 (stereo not drawn) [CYCLOPHOSPHAMIDE ANHYDROUS] | HH: Evidence of human hepatotoxicity |

| Molecule | Hepatotoxicity |
| --- | --- |
| COc1cc(Cc2cnc(N)nc2N)cc(OC)c1OC [TRIMETHOPRIM] | HH: Evidence of human hepatotoxicity |
| CC1(C)S[C@@H]2[C@H](NC(=O)[C@H](N)c3ccc(O)cc3)C(=O)N2[C@H]1C(=O)O [AMOXICILLIN] | WE: Weak evidence (<10 case reports) of human hepatotoxicity |
| CN[C@@H]1[C@H](O)[C@H](NC)[C@H]2O[C@@]3(O)C(=O)C[C@@H](C)O[C@H]3O[C@@H]2[C@H]1O.Cl | HH: Evidence of human hepatotoxicity |
| Cc1cn([C@H]2C[C@H](N=[N+]=[N-])[C@@H](CO)O2)c(=O)[nH]c1=O [ZIDOVUDINE] | HH: Evidence of human hepatotoxicity |
| Cc1ncc([N+](=O)[O-])n1CCO [METRONIDAZOLE] | HH: Evidence of human hepatotoxicity |
| AUROTHIOGLUCOSE | HH: Evidence of human hepatotoxicity |
| CN[C@H]1CC[C@@H](c2ccc(Cl)c(Cl)c2)c2ccccc21 [SERTRALINE] | WE: Weak evidence (<10 case reports) of human hepatotoxicity |
| CN/C(=N/CCSCc1nc[nH]c1C)NC#N [CIMETIDINE] | WE: Weak evidence (<10 case reports) of human hepatotoxicity |
| CC[C@H]1OC(=O)[C@H](C)[C@@H](O[C@H]2C[C@@](C)(OC)[C@@H](O)[C@H](C)O2)[C@H](C)[C@@H](O[C@@H]2O[C@H](C)C[C@H](N(C)C)[C@H]2O)[C@](C)(O)C[C@@H](C)CN(C)[C@H](C)[C@@H](O)[C@]1(C)O [AZITHROMYCIN] | WE: Weak evidence (<10 case reports) of human hepatotoxicity |
| O=c1[nH]c(=O)n([C@H]2C[C@H](O)[C@@H](CO)O2)cc1I [IDOXURIDINE] | HH: Evidence of human hepatotoxicity |
| CC(=O)Nc1cccc(O)c1 [METACETAMOL] | WE: Weak evidence (<10 case reports) of human hepatotoxicity |
| O=c1[nH]c(=O)n([C@H]2C[C@H](O)[C@@H](CO)O2)cc1F [FLOXURIDINE] | HH: Evidence of human hepatotoxicity |
| C#C[C@]1(O)CC[C@H]2[C@@H]3CCC4=Cc5oncc5C[C@]4(C)[C@H]3CC[C@@]21C [DANAZOL] | HH: Evidence of human hepatotoxicity |
| O=C(O)c1ccncc1 [ISONICOTINIC ACID] | NE: No evidence of hepatotoxicity in any species |
| CCCCc1oc2ccccc2c1C(=O)c1cc(I)c(OCCN(CC)CC)c(I)c1 [AMIODARONE] | HH: Evidence of human hepatotoxicity |
| NC[C@H]1O[C@H](O[C@H]2[C@H](O)[C@@H](O[C@H]3O[C@H](CO)[C@@H](O)[C@H](N)[C@H]3O)[C@H](N)C[C@@H]2N)[C@H](N)C[C@@H]1O [TOBRAMYCIN] | HH: Evidence of human hepatotoxicity |
| CN1Cc2c(N)cccc2C(c2ccccc2)C1 (stereo not drawn) [NOMIFENSINE] | HH: Evidence of human hepatotoxicity |
| CC[C@]1(O)C[C@H]2CN(CCc3c([nH]c4ccccc34)[C@@](C(=O)OC)(c3cc4c(cc3OC)N(C=O)[C@H]3[C@@](O)(C(=O)OC)[C@H](OC(C)=O)[C@]5(CC)C=CCN6CC[C@]43[C@@H]65)C2)C1.O=S(=O)(O)O [VINCRISTINE SULFATE] | HH: Evidence of human hepatotoxicity |
| C[C@@H]1NC(=O)[C@@H](N)CNC(=O)[C@H](C2CCNC(=N)N2)NC(=O)/C(=C/NC(N)=O)NC(=O)[C@H](CNC(=O)CC(N)CCCN)NC1=O.N=C1NCCC([C@@H]2NC(=O)/C(=C/NC(N)=O)NC(=O)[C@H](CNC(=O)CC(N)CCCN)NC(=O)[C@H](CO)NC(=O)[C@@H](N)CNC2=O)N1.O=S(=O)(O)O.O=S(=O)(O)O (stereo partly drawn) [CAPREOMYCIN SULFATE] (H-[Dap]S[Dap](ξβ3hOrn)[ΔAla(Z-3-ureido)][X1]; lactam 1-C) | NE: No evidence of hepatotoxicity in any species |
| CC(N/C(=N\C#N)Nc1ccncc1)C(C)(C)C (stereo not drawn) [PINACIDIL ANHYDROUS] | NE: No evidence of hepatotoxicity in any species |

| Molecule | Hepatotoxicity |
| --- | --- |
| CC(=N)S [THIOACETAMIDE] | AH: Evidence for animal hepatotoxicity but not tested in humans |
| CC[C@H]1OC(=O)[C@H](C)[C@@H](O[C@H]2C[C@@](C)(OC)[C@@H](O)[C@H](C)O2)[C@H](C)[C@@H](O[C@@H]2O[C@H](C)C[C@H](N(C)C)[C@H]2O)[C@](C)(O)C[C@@H](C)C(=O)[C@H](C)[C@@H](O)[C@]1(C)O [ERYTHROMYCIN] | WE: Weak evidence (<10 case reports) of human hepatotoxicity |
| O=C1CCC(=O)N1c1cc(Cl)cc(Cl)c1 [DIMETHACHLON] | AH: Evidence for animal hepatotoxicity but not tested in humans |
| [Cl-].[Na+] [SODIUM CHLORIDE] | NE: No evidence of hepatotoxicity in any species |
| CN1CCN(CCCN2c3ccccc3Sc3ccc(C(F)(F)F)cc32)CC1 [TRIFLUOPERAZINE] | HH: Evidence of human hepatotoxicity |
| Clc1ccc(COC(Cn2ccnc2)c2ccc(Cl)cc2Cl)cc1.O=[N+]([O-])O (stereo not drawn) [ECONAZOLE NITRATE] | NE: No evidence of hepatotoxicity in any species |
| CC(C(=O)O)c1ccc(N2CC=CC2)c(Cl)c1 (stereo not drawn) [PIRPROFEN] | HH: Evidence of human hepatotoxicity |
| CC[C@H](C)[C@H](N)C1=N[C@H](C(=O)N[C@@H](CC(C)C)C(=O)N[C@H](CCC(=O)O)C(=O)N[C@H](C(=O)N[C@H]2CCCCNC(=O)[C@H](CC(N)=O)NC(=O)[C@@H](CC(=O)O)NC(=O)[C@H](Cc3cnc[nH]3)NC(=O)[C@@H](Cc3ccccc3)NC(=O)[C@H]([C@@H](C)CC)NC(=O)[C@@H](CCCN)NC2=O)[C@@H](C)CC)CS1 [BACITRACIN] ({Ileψ(thiazoline)Cys}-L[dE]IK[dOrn]I[dF]H[dD]N; lactam 4-C) | NE: No evidence of hepatotoxicity in any species |
| CNCCCN1c2ccccc2CCc2ccccc21 [DESIPRAMINE] | WE: Weak evidence (<10 case reports) of human hepatotoxicity |
| O=c1[nH]cc(F)c(=O)[nH]1 [FLUOROURACIL] | HH: Evidence of human hepatotoxicity |
| CCC1(c2ccccc2)CCC(=O)NC1=O (stereo not drawn) [GLUTETHIMIDE] | HH: Evidence of human hepatotoxicity |
| Cc1cccc(Nc2ccccc2C(=O)O)c1C [MEFENAMIC ACID] | HH: Evidence of human hepatotoxicity |
| CO[C@@]1(NC(=O)Cc2cccs2)C(=O)N2C(C(=O)O)=C(COC(N)=O)CS[C@@H]21 [CEFOXITIN] | HH: Evidence of human hepatotoxicity |
| CC1=C(CC(=O)O)c2cc(F)ccc2/C1=C\c1ccc([S+](C)[O-])cc1 (stereo not drawn) | HH: Evidence of human hepatotoxicity |
| NCCCC[C@H](N[C@@H](CCc1ccccc1)C(=O)O)C(=O)N1CCC[C@H]1C(=O)O [LISINOPRIL ANHYDROUS] | HH: Evidence of human hepatotoxicity |
| CN(C)CCN(Cc1ccccc1)c1ccccn1.Cl [TRIPELENNAMINE HYDROCHLORIDE] | HH: Evidence of human hepatotoxicity |
| CN1CCN2c3ccccc3Cc3ccccc3C2C1 (stereo not drawn) [MIANSERIN] | HH: Evidence of human hepatotoxicity |
| O=[N+]([O-])c1ccc(O)c([N+](=O)[O-])c1 [2,4-DINITROPHENOL] | AH: Evidence for animal hepatotoxicity but not tested in humans |
